Measurements: patent US20250064941A1, “SIGLEC LIGANDS, CONJUGATES, AND METHODS OF USE THEREOF” (Osprey Biopharmaceuticals, Inc., priority 2023, published 2025)
pKd: −log10 of the molar value.

Columns and labels:
cynomolgus Siglec-2/CD22 = cynomolgus Siglec-2/CD22 (Macaca fascicularis, UniProt A0A2K5WCZ6); experiment: biochemical; assay type: binding; settings: SPR, steady-state analysis; read-out: Affinity cyno CD22
Procedure, shortened: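 Compound binding measured by steady-state SPR analysis, 120 s dissociation, in HEPES-NaCl-Tween buffer pH 7.5 containing 1% DMSO, DMSO solvent-corrected. Surface: cyno CD22, sialic acids first stripped by SialoExo for 4 h at 37° C., then amine-coupled onto CM5.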

[1] = biological target: T1, mouse Siglec-2-Fc-Avi (CD22) (Mus musculus, UniProt P35329); experiment: SPR binding affinity to mouse CD22; settings: steady-state analysis
T1 construct: made in house
T1 sequence (P35329 22-708 limits assumed): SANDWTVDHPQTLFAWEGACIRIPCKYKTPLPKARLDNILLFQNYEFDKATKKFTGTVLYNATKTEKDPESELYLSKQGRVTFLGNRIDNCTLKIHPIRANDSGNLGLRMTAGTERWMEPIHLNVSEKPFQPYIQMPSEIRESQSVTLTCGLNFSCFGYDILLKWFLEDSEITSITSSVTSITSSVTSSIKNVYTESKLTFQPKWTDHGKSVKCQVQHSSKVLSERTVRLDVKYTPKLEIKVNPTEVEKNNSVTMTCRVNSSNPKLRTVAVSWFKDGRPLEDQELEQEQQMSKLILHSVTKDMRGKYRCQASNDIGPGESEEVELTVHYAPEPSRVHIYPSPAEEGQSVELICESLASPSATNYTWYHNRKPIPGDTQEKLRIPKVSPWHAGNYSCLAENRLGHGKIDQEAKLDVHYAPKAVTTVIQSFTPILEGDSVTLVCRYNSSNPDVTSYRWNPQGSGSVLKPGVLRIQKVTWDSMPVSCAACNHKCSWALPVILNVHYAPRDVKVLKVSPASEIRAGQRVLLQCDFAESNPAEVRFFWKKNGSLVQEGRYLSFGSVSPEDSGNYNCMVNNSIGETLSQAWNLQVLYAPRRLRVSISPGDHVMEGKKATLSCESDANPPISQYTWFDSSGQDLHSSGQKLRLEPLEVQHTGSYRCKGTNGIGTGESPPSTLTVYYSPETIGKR
Procedure, shortened: (§1)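 Using a Biacore 8K, compounds were tested against biotinylated CD22 captured after sialidase treatment. The running buffer held 1% DMSO, corrected with a 0.5–2% DMSO series. Affinity was derived by steady-state analysis.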

[2] = biological target: T2, human Siglec-2/CD22 protein (Homo sapiens, UniProt P20273); experiment: SPR binding affinity to human CD22; settings: steady-state analysis
T2 construct: purchased Acro Biosystems SI2-H82E3
T2 sequence (P20273 20-847): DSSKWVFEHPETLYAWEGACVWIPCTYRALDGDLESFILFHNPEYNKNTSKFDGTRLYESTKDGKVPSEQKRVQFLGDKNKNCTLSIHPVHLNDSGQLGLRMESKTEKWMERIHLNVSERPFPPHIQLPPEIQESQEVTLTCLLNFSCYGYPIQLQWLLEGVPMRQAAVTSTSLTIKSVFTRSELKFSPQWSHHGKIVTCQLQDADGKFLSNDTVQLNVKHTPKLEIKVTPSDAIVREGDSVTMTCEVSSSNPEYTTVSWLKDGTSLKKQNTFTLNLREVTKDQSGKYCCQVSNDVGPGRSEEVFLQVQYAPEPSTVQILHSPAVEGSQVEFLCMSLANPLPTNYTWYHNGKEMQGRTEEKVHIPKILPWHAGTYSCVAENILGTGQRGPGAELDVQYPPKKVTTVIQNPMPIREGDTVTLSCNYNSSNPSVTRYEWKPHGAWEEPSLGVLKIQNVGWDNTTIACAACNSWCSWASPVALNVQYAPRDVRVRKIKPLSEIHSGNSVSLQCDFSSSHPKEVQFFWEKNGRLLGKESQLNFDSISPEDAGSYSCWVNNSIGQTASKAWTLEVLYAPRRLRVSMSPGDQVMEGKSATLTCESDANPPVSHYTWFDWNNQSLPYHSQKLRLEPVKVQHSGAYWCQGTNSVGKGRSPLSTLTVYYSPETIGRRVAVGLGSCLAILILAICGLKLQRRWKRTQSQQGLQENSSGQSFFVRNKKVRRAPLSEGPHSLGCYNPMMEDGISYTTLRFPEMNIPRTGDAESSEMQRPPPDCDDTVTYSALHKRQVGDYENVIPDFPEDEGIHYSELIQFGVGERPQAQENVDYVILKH
Procedure, shortened: as §1

cynomolgus Siglec-2/CD22, sequence (A0A2K5WCZ6 entry or part of it): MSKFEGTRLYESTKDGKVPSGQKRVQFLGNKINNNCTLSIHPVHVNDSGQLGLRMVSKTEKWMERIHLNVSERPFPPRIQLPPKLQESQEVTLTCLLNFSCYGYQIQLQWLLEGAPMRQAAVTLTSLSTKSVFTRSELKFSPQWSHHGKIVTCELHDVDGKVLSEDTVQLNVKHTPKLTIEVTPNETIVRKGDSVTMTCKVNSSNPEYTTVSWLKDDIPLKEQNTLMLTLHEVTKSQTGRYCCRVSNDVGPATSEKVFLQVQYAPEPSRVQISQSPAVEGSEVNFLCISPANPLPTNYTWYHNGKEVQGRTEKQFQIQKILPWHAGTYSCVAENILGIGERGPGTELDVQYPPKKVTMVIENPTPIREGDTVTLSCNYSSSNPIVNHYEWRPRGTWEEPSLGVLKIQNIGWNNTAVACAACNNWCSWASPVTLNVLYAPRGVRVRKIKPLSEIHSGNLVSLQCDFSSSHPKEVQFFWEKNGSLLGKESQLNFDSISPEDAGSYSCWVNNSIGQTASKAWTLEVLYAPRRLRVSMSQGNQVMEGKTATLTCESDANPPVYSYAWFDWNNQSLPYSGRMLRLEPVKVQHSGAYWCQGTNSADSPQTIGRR

Row | Compound | pKd (cynomolgus Siglec-2/CD22) | pKd [1] | pKd [2]
1 | C#CCOCCOCCO[C@]1(C(=O)O)C[C@H](O)[C@@H](NC(=O)CO)[C@H]([C@H](O)[C@H](O)CNC(=O)c2cccc(Oc3ccc(O)cc3)c2)O1 [Compound 18, (2R,4S,5R,6R)-6-((1R,2R)-1,2-dihydroxy-3-(3-(4-hydroxyphenoxy)benzamido)propyl)-4-hydroxy-5-(2-hydroxyacetamido)-2-(2-(2-(prop-2-yn-1-yloxy)ethoxy)ethoxy)tetrahydro-2H-pyran-2-carboxylic acid] | 5.00 to 6.00 | 5.00 to 6.00 | > 6.00
2 | C#CCOCCOCCO[C@]1(C(=O)O)C[C@H](O)[C@@H](NC(=O)CO)[C@H]([C@H](O)[C@H](O)CNC(=O)Cc2ccc(Cl)c(O)c2)O1 [Compound 134, (2R,4S,5R,6R)-6-((1R,2R)-3-(2-(4-chloro-3-hydroxyphenyl)acetamido)-1,2-dihydroxypropyl)-4-hydroxy-5-(2-hydroxyacetamido)-2-(2-(2-(prop-2-yn-1-yloxy)ethoxy)ethoxy)tetrahydro-2H-pyran-2-carboxylic acid] | > 6.00 | 5.00 to 6.00 | > 6.00
3 | C#CCOCCOCCO[C@]1(C(=O)O)C[C@H](O)[C@@H](NC(=O)CO)[C@H]([C@H](O)[C@H](O)CNC(=O)c2cc3c(s2)-c2ccccc2OC3)O1 [Compound 179, (2R,4S,5R,6R)-6-((1R,2R)-1,2-dihydroxy-3-(4H-thieno[3,2-c]chromene-2-carboxamido)propyl)-4-hydroxy-5-(2-hydroxyacetamido)-2-(2-(2-(prop-2-yn-1-yloxy)ethoxy)ethoxy)tetrahydro-2H-pyran-2-carboxylic acid] | 5.00 to 6.00 | < 5.00 | > 6.00
4 | C#CCCOc1ccc(CO[C@]2(C(=O)O)C[C@H](O)[C@@H](NC(=O)CO)[C@H]([C@H](O)[C@H](O)CNC(=O)Cc3ccc4[nH]c(=O)[nH]c4c3)O2)cc1 [Compound 7, (2R,4S,5R,6R)-2-((4-(but-3-yn-1-yloxy)benzyl)oxy)-6-((1R,2R)-1,2-dihydroxy-3-(2-(2-oxo-2,3-dihydro-1H-benzo[d]imidazol-5-yl)acetamido)propyl)-4-hydroxy-5-(2-hydroxyacetamido)tetrahydro-2H-pyran-2-carboxylic acid] | < 5.00 | < 5.00 | 5.00 to 6.00
5 | C#CCOCCCCCCO[C@]1(C(=O)O)C[C@H](O)[C@@H](NC(=O)CO)[C@H]([C@H](O)[C@H](O)CNC(=O)Cc2ccc(C(C)C)cc2)O1 [Cpd. 159, (2R,4S,5R,6R)-6-((1R,2R)-1,2-dihydroxy-3-(2-(4-isopropylphenyl)acetamido)propyl)-4-hydroxy-5-(2-hydroxyacetamido)-2-((6-(prop-2-yn-1-yloxy)hexyl)oxy)tetrahydro-2H-pyran-2-carboxylic acid] | > 6.00 | > 6.00 | > 6.00
6 | C#CCCC(=O)NCCCCCCO[C@]1(C(=O)O)C[C@H](O)[C@@H](NC(=O)CO)[C@H]([C@H](O)[C@H](O)CNC(=O)Cc2ccc(Cl)cc2)O1 [Compound 217, (2R,4S,5R,6R)-6-((1R,2R)-3-(2-(4-chlorophenyl)acetamido)-1,2-dihydroxypropyl)-4-hydroxy-5-(2-hydroxyacetamido)-2-((6-(pent-4-ynamido)hexyl)oxy)tetrahydro-2H-pyran-2-carboxylic acid] | > 6.00 | 5.00 to 6.00 | > 6.00
7 | C#CCCOc1ccc(CO[C@]2(C(=O)O)C[C@H](O)[C@@H](NC(=O)CO)[C@H]([C@H](O)[C@H](O)CNC(=O)Cc3ccc(Cl)cc3)O2)cc1 [Compound 124, (2R,4S,5R,6R)-2-((4-(but-3-yn-1-yloxy)benzyl)oxy)-6-((1R,2R)-3-(2-(4-chlorophenyl)acetamido)-1,2-dihydroxypropyl)-4-hydroxy-5-(2-hydroxyacetamido)tetrahydro-2H-pyran-2-carboxylic acid] | 5.00 to 6.00 | > 6.00 | > 6.00
8 | CC(=O)NCCOCCOCCOCCOCCC(=O)NCCOCCOCCO[C@]1(C(=O)O)C[C@H](O)[C@@H](NC(C)=O)[C@H]([C@H](O)[C@H](O)CNC(=O)Cc2ccc(Cl)cc2)O1 [Compound 274, (2R,4S,5R,6R)-5-acetamido-6-((1R,2R)-3-(2-(4-chlorophenyl)acetamido)-1,2-dihydroxypropyl)-2-((2,18-dioxo-6,9,12,15,22,25-hexaoxa-3,19-diazaheptacosan-27-yl)oxy)-4-hydroxytetrahydro-2H-pyran-2-carboxylic acid] | < 5.00 | < 5.00 | < 5.00
9 | C#CCOCCCCCCO[C@]1(C(=O)O)C[C@H](O)[C@@H](NC(=O)CN(C)C)[C@H]([C@H](O)[C@H](O)CNC(=O)Cc2ccc(Cl)cc2)O1 [Compound 25, (2R,4S,5R,6R)-6-((1R,2R)-3-(2-(4-chlorophenyl)acetamido)-1,2-dihydroxypropyl)-5-(2-(dimethylamino)acetamido)-4-hydroxy-2-((6-(prop-2-yn-1-yloxy)hexyl)oxy)tetrahydro-2H-pyran-2-carboxylic acid] | 5.00 to 6.00 | 5.00 to 6.00 | < 5.00

The next lines start with the values.

Row | pKd (cynomolgus Siglec-2/CD22) | pKd [1] | pKd [2] | Compound
10 | 5.00 to 6.00 | 5.00 to 6.00 | > 6.00 | C#CCCOc1ccc(CS[C@]2(C(=O)O)C[C@H](O)[C@@H](NC(=O)CO)[C@H]([C@H](O)[C@H](O)CNC(=O)Cc3cccc(O)c3)O2)cc1 [Compound 149, (2S,4S,5R,6R)-2-((4-(but-3-yn-1-yloxy)benzyl)thio)-6-((1R,2R)-1,2-dihydroxy-3-(2-(3-hydroxyphenyl)acetamido)propyl)-4-hydroxy-5-(2-hydroxyacetamido)tetrahydro-2H-pyran-2-carboxylic acid]
11 | > 6.00 | > 6.00 | > 6.00 | C#CCCOc1ccc(CS[C@]2(C(=O)O)C[C@H](O)[C@@H](NC(=O)CO)[C@H]([C@H](O)[C@H](O)CNC(=O)Cc3ccc(Cl)cc3)O2)cc1 [Compound 122, (2S,4S,5R,6R)-2-((4-(but-3-yn-1-yloxy)benzyl)thio)-6-((1R,2R)-3-(2-(4-chlorophenyl)acetamido)-1,2-dihydroxypropyl)-4-hydroxy-5-(2-hydroxyacetamido)tetrahydro-2H-pyran-2-carboxylic acid]
12 | 5.00 to 6.00 | 5.00 to 6.00 | > 6.00 | C#CCOCCCCCCO[C@]1(C(=O)O)C[C@H](O)[C@@H](NC(=O)C(N)=O)[C@H]([C@H](O)[C@H](O)CNC(=O)Cc2ccc(Cl)cc2)O1 [Compound 223, (2R,4S,5R,6R)-5-(2-amino-2-oxoacetamido)-6-((1R,2R)-3-(2-(4-chlorophenyl)acetamido)-1,2-dihydroxypropyl)-4-hydroxy-2-((6-(prop-2-yn-1-yloxy)hexyl)oxy)tetrahydro-2H-pyran-2-carboxylic acid]
13 | 5.00 to 6.00 | 5.00 to 6.00 | 5.00 to 6.00 | C#CCCOc1ccc(CO[C@]2(C(=O)O)C[C@H](O)[C@@H](NC(=O)CO)[C@H]([C@H](O)[C@H](O)CNC(=O)C(F)(F)c3ccccc3)O2)cc1 [Compound 172, (2R,4S,5R,6R)-2-((4-(but-3-yn-1-yloxy)benzyl)oxy)-6-((1R,2R)-3-(2,2-difluoro-2-phenylacetamido)-1,2-dihydroxypropyl)-4-hydroxy-5-(2-hydroxyacetamido)tetrahydro-2H-pyran-2-carboxylic acid]
